Assay results from the OPERA property sets (Mansouri et al. 2018).
In brackets after ≈: the same amount, converted by molar mass.

Details: not given

| SMILES | logP |
| --- | --- |
| CCCCCCCCCCCC(=O)OCC(CC)CCCC (stereo not given) | 8.03 |
| CCCCCCCCCCCC(=O)OCCC | 6.11 |
| CCCCCCCCCCCC(=O)OCCCC | 6.51 |
| CCCCC/C=C\C/C=C\CCCCCCCC(=O)OC | 6.82 |
| CCCCCCCCCCCC(=O)OCC | 5.71 |
| CC/C=C\C/C=C\C/C=C\CCCCCCCC(=O)OC | 6.29 |

The next lines start with the values.

| logP | SMILES |
| --- | --- |
| 9.32 | CCCCCCCC/C=C\CCCCCCCCCCCC(=O)OC |
| 7.45 | CCCCCCCC/C=C\CCCCCCCC(=O)OC |
| 10.2 | CCCCCCCCCCCCCCCCCCCCCC(=O)OC |
| 8.35 | CCCCCCCCCCCCCCCCCC(=O)OC |
| 5.41 | CCCCCCCCCCCC(=O)OC |
| 7.38 | CCCCCCCCCCCCCCCC(=O)OC |
| 9.3 | CCCCCCCCCCCCCCCCCCCC(=O)OC |
| 6.41 | CCCCCCCCCCCCCC(=O)OC |

Same assay, conditions: 25 °C

| solubility [µM] | SMILES |
| --- | --- |
| 0.011 (≈ 2.4 ng/mL) | CCCCCCCCCCc1ccccc1 |
